Results on one compound are retold here after patent publication US20120172306A1, “Use of HASF as a Protective Agent Against Ischemic Tissue Damage” (Duke University, priority 2009, published 2012).

One assay relates to adult rat cardiomyocytes. Description: Caspase-Glo 9 and 3/7 assays of H2O2 induced apoptosis. The format is cell-based. The following applies: 3 μM inhibitor 30 min, 100 nM HASF 30 min, 200 μM H2O2 3 hours. The protocol:
FIGS. 2B and 2C are bar graphs showing relative caspase activity. Adult rat cardiomyocytes were freshly isolated and treated ±10 nM of HASF for 30 min, and then challenged with 100 μM of H2O2 for various time points. H2O2 induced apoptosis in cardiomyocytes was evidenced by the dynamic increase in the activities of the initiator Caspase 9 and effector Caspase […] at 5 h, 7 h and 9 h respectively. Y axis represent the relative amount of luminescence indicating the relative amount of active Caspase activities. ** P<0.01 and *** P<0.001. Data are presented as means±standard deviation of triplicates.
FIG. 3C is a bar graph showing fold-change in caspase activity. Serum-starved adult rat cardiomyocytes were treated with 3 μM PKC inhibitors or vehicle DMSO for 30 minutes, then 100 nM HASF recombinant protein was added for 30 minutes followed by treatment with 200 μM H2O2 for 3 hours. Apoptosis was determined by detection of Caspase-9 activity using a homogeneous luminescent assay. All samples were measured in triplicates. *P<0.05 vs. non-HASF treated cells.
FIG. 4C is a bar graph showing relative caspase activity in adult cardiomyocytes. Apoptosis as determined by detection of Caspase-9 activity on adult rat cardiomyocytes pre-treated with 178 μM PKC translocation inhibitor peptide for 10 minutes and then with 100 nM of HASF for 30 minutes. Thereafter, cells were challenged with 200 μM H2O2 for 3 hours. All samples were measured in triplicates. *P <0.05 vs. non-HASF treated cells and the experiment was repeated multiple times.
Adult rat ventricular cardiomyocytes were isolated from 6 weeks old female Sprague-Dawley rat (Harlan World Headquarters, Indianapolis, Ill., USA) hearts by enzymatic digestion and were seeded in (6-well) plates or Delta T culture dishes (Bioptechs, Inc., Pa.) pre-coated with 1 μg/cm2 of laminin (Sigma) at 5×10^4/well and cultured overnight in serum-free M199 medium (Sigma), supplemented with 2 mM of L-carnitine, 5 mM of creatine, 5 mM of taurine, 0.2% of albumin, 100 U/ml of penicillin and 100 μg/ml of streptomycin. […]

Assay [1] relates to PKC, Raf, ERK 1/2, PDK1 phosphorylation in adult rat cardiomyocytes. In words: Western blot analysis of signaling protein phosphorylation (PKC/ERK pathway). The following applies: 3 μM inhibitor 30 min, then 100 nM HASF 5-10 min. The assay is classed as cell-based. Here is the method:
FIG. 3A is a photograph of an electrophoretic gel. HASF activates the PKC pathway. A. Western blots analysis for various signaling proteins. Serum-starved adult rat cardiomyocytes were stimulated with 100 nM HASF recombinant protein for various time courses. Cell lysate was collected and the proteins were resolved by SDS-PAGE. Insulin from bovine pancreas was used as a positive control. min: minutes of treatment.
FIG. 3B is a photograph of an immunoblot. Serum-starved adult rat cardiomyocytes were pre-treated with 3 μM PKC inhibitors BIM, Gö6976, or Gö6983 for 30 minutes, then stimulated with 100 nM HASF recombinant protein for 5-10 min and cells were harvested. Total cell lysates were used to analyze the levels of ERK1/2 phosphorylation by western blot analysis.
FIG. 4A is a photograph of an immunoblot. Western blot analysis for PKC E and PKC delta phosphorylation on total cell lysates from serum-starved adult rat cardiomyocytes stimulated with 100 nM HASF recombinant protein at 5 and 30 min. HASF b1 and b2 represent different batches of recombinant protein. PMA was used as positive control.
FIG. 4B is a photograph of an immunoblot. Western blot analysis for ERK1/2 phosphorylation on total cell lysates from adult rat cardiomyocytes pre-treated with 10 pM PKC epsilon translocation inhibitor peptide for 20 min, then 100 nM HASF recombinant protein was added for 5 min or 10 min.
FIGS. 8A-B are photographs of immunoblots. Western blot analysis for PKC a/b and PKC theta phosphorylation on total cell lysates from serum-starved adult rat cardiomyocytes stimulated with 100 nM HASF recombinant protein for the indicated times. HASF batch 1 and 2 represent different batches of recombinant protein. PMA was used as positive control.
Rabbit polyclonal antibodies for phospho-pan PKC, phospho-ERK1/2, phospho-raf, phosphor-PDK1, total Akt were obtained from Cell Signaling Tech. Rabbit polyclonal antibody for phospho-PKC epsilon, phospho-Bad, and GAPDH was obtained from Abeam. HRP-conjugated goat anti-rabbit secondary antibody was obtained from Cell Signaling Tech.

Take `CN(C)CCCn1cc(C2=C(c3c[nH]c4ccccc34)C(=O)NC2=O)c2ccccc21.Cl` [BIM, Bisindolylmalemide Hydrochloride, reference compound]: the “effect of PKC inhibitor on protective effects of HASF (Caspase-9 activity)” value in the assay with adult rat cardiomyocytes is “abolished the protective effects”. The “effect of PKC inhibitor on HASF-mediated ERK1/2 phosphorylation” value in assay [1] is recorded as “abolished”.
